The values that follow come from patent publication US10232041B2, “Combination of lenalidomide and polypeptide construct, and uses thereof” (Teva Pharmaceuticals Australia Pty Ltd, priority 2014, dated 2019).

For experiment [1], the system named is NCI-H929 multiple myeloma cells. The experiment in a line: NCI-H929 multiple myeloma xenograft, anti-CD38 antibody-attenuated IFN alpha-2b construct + lenalidomide (Example 1). As to conditions: IFN-alpha 0.5 mg/kg; for tumor growth / tumor volume as a function of time (in words): construct 2.5 mg/kg ip biweekly (suboptimal), lenalidomide 2.5 mg/kg or 25 mg/kg daily for 21 days ip, FIG. 1, FIG. 2; for time at which tumor growth initiated and accelerated: after commencing treatment, construct 2.5 mg/kg ip biweekly, lenalidomide 2.5 mg/kg. It counts as in vivo, SCID mice. How it is done:
When tumors reached an average size of 200-300 mm^3, mice were pair matched into different groups and then treated with vehicle (PBS), free-non-attenuated interferon alpha (IFN-alpha) at 0.5 mg/kg, a suboptimal dose of an anti-CD38 antibody-IFN alpha-2b-145D construct (2.5 mg/kg, molar equivalent to 0.5 mg/kg IFN; ip, biweekly, which was determined by previous in vivo efficacy studies), an isotype-matched antibody-IFN alpha-2b-145D construct (isotype matched to the anti-CD38 antibody, with no anti-CD38 specificity), lenalidomide alone (2.5 mg/kg), a combination of free-non-attenuated interferon alpha and lenalidomide, a combination of lenalidomide and a suboptimal dose of the anti-CD38 antibody-IFN alpha-2b-145D construct, or a combination of the isotype control antibody-IFN alpha-2b-145D construct and lenalidomide. The amount of the anti-CD38 antibody-attenuated IFN alpha-2b construct administered was normalized to an IFN-alpha molar equivalent of the 0.5 mg/kg of free interferon administered to the animals.

In experiment [2] the test system is H929 multiple myeloma tumor cells.
Experimental: In this experiment, 8-12 week-old female CB.17 severe combined immunodeficient (SCID) mice were implanted with 1×10^7 H929 multiple myeloma tumor cells in 50% Matrigel® subcutaneously in the flank. Tumor volume was measured by calipers biweekly. When tumors reached an average size of 170-350 mm^3, mice were randomized and treatment commenced. An animal was terminated if the tumor grew to a volume of greater than 2000 mm^3 before the study was completed at day 60.
Ten animals were assigned to each of groups 1 to 10. Treatment may cause “partial regression” (PR) or complete regression (CR) of the tumor in an animal. In a PR response, the tumor volume was 50% or less of its Day 1 volume for three consecutive measurements during the course of the study, and equal to or greater than 13.5 mm^3 for one or more of these three measurements. In a CR response, the tumor volume was less than 13.5 mm^3 for three consecutive measurements during the study. Any animal with a CR response at the end of the study was additionally classified as a tumor free survivor (TFS).
The next experiment deals with H929 tumor cells. Put plainly: H929 human multiple myeloma xenograft, pomalidomide study (Example 3). The class given is in vivo, SCID mice. The settings on record: pomalidomide 2.5 mg/kg ip qd × 21; constructs 40 μg/dose ip biwk × 4; FIG. 5. How it is done:
Pomalidomide, like lenalidomide, is a derivative and an analog of thalidomide with increased potency against multiple myeloma and reduced toxicity.
In brief, sixty female CB.17 SCID mice were injected with 1×10^7 H929 tumor cells subcutaneously in the right flank. […] The endpoint for the study was when tumor volume reached 2000 mm^3. Cohorts were divided as follows, as summarized in Table 6: Group 1, Vehicle (PBS); Group 2, Pomalidomide alone (2.5 mg/kg); Group 3, Anti-CD38-attenuated IFNα- (40 ug/dose); Group 4, Anti-isotype-IFNα-attenuated (40 ug/dose), Group 5, Pomalidomide (2.5 mg/kg) plus anti-CD38-attenuated IFNa (40 μg/dose); and Group 6, Pomalidomide (2.5 mg/kg) plus anti-isotype-attenuated IFNα- (40 μg/dose), Pomalidomide administration started at day 1 and ended on day 21; antibody-interferon fusion construct administration started on day 1 and ended on day 28.
(Xenograft models place foreign cells or tissue in a host animal.)

[3] abbreviates: Group 2: lenalidomide 25 mg/kg ip qd × 21, ten animals per group.

“Also recorded” adds a separate entry of the source.

`Nc1cccc2c1CN(C1CCC(=O)NC1=O)C2=O` (racemic) [lenalidomide, (RS)-3-(4-Amino-1-oxo 1,3-dihydro-2H-isoindol-2-yl)piperidine-2,6-dione]: in experiment [1], the “tumor growth / tumor volume as a function of time (in words)” value was “delayed tumor growth relative to the vehicle control; also recorded: delayed the onset of rapid tumor growth”; the “time at which tumor growth initiated and accelerated” value is reported as “within two weeks to about a month”. For the same compound, the “MTV Day 60 (Median Tumor Volume at study end)” value in experiment [2] (Group 2: lenalidomide 25 mg/kg ip qd × 21) was 726 mm^3. For the same compound, in experiment [2] (setting [3]), the “(n) number of surviving animals used for MTV calculation, Day 60” value is 1; the “CR No. of Complete Regressions” value is 0; the “PR No. of Partial Regressions” value came to 1; the “TFS No. of Tumor Free Survivors” value was determined as 0. Besides, the “tumor growth (in words)” value in experiment [2] (sub-optimal dosage of construct, lenalidomide 25 mg/kg, Table 5 and FIG. 3) is reported as “delayed tumor growth relative to vehicle control”.

In the case of `Nc1cccc2c1C(=O)N(C1CCC(=O)NC1=O)C2=O` (racemic) [Pomalidomide, (RS)-4-Amino-2-(2,6-dioxopiperidin-3-yl)isoindole-1,3-dione], in the experiment with H929 tumor cells, the “tumor growth / tumor shrinkage (in words)” value was “did not substantially slow tumor growth”.

As to interferon alpha, in experiment [1], the “tumor growth / tumor volume as a function of time (in words)” value is listed as “delayed tumor growth relative to the vehicle control”; the “time at which tumor growth initiated and accelerated” value is “within two weeks to about a month”.
